Assay results reported in patent US8017633B2, “Roflumilast for the treatment of diabetes mellitus” (Nycomed GmbH, priority 2005, dated 2011).

Columns and labels:
Type in all cases: in vivo, mouse
[1] = test system: C57BLKS db/db mice; experiment: Daily food intake of db/db mice during once-daily oral treatment
Method: (§1) Female C57BLKS db/db mice obtained from M&B A/S (8680 Ry, Denmark) were used in the studies at 10 to 11 weeks of age. Mice were housed 10 per cage and allowed free access to water and standard laboratory diet for rodents (chow 3433, Provimi Kliba SA, 4303 Kaiseraugst, Switzerland).
(§2) Mice were treated with vehicle, Roflumilast or Roflumilast-N-Oxide, respectively once daily in the morning. Roflumilast or Roflumilast-N-Oxide was suspended in 4% methocel and applied via oral gavage using oral feeding & dosing needles (outer diameter: 1.5 mm, TSE GmbH, 61350 Bad Homburg, Germany). A volume of 10 ml/kg body weight was administered for each dose.
(§3) The daily intake of food (chow 3433) and water was measured per animal (total daily intake of food divided by the number of animals) before and during the treatment with Roflumilast or Roflumilast-N-Oxide.

[2] = test system: C57BLKS db/db mice; experiment: Daily water intake of db/db mice during once-daily oral treatment
Method: as §1, §2, §3

[3] = test system: C57BLKS db/db mice; experiment: 10 days study: fasting blood glucose and oral glucose tolerance in db/db mice; details: for Blood glucose (15 min after glucose application) / Blood glucose (before glucose application): fasted 24 h; for Blood glucose (15 min after glucose application): 15 min after oral 1 g/kg glucose; for Blood glucose (before glucose application): 1 h after dose
Method: as §1
Mice were allowed to acclimate to the local animal facilities for 1 week and retro-orbital blood samples were obtained 3 to 7 days prior to the start of the study.
as §2
10 days studies: Mice were treated with vehicle, Roflumilast or Roflumilast-N-Oxide once daily in the morning. On day 9, mice were fasted for 24 hours by removing standard diet for laboratory animals 1 hour after drug application. On day 10, one hour after administration of vehicle, Roflumilast or Roflumilast-N-Oxide glucose tolerance was assessed by oral application of 1 g/kg/10 ml glucose. Blood was sampled before and 15 minutes after glucose application and levels of glucose (accu-chek, Roche Diagnostics GmbH, 68298 Mannheim, Germany) were measured.

[4] = 1 mg/kg group, Day −1, before first application
[5] = 1 mg/kg group, Day −2, before first application
[6] = 1 mg/kg group, Day −3, before first application
[7] = 1 mg/kg group, Day −4, before first application
[8] = 1 mg/kg group, Day −5, before first application
[9] = 3 mg/kg group, Day −1, before first application
[10] = 3 mg/kg group, Day −2, before first application
[11] = 3 mg/kg group, Day −3, before first application
[12] = 3 mg/kg group, Day −4, before first application
[13] = 3 mg/kg group, Day −5, before first application
[14] = 10 mg/kg group, Day −1, before first application
[15] = 10 mg/kg group, Day −2, before first application
[16] = 10 mg/kg group, Day −3, before first application
[17] = 10 mg/kg group, Day −4, before first application
[18] = 10 mg/kg group, Day −5, before first application
[19] = 10 mg/kg oral once daily, Day 1
[20] = 10 mg/kg oral once daily, Day 2
[21] = 10 mg/kg oral once daily, Day 4
[22] = 10 mg/kg oral once daily, Day 5
[23] = 10 mg/kg oral once daily, Day 6
[24] = 10 mg/kg oral once daily, Day 7
[25] = 10 mg/kg oral once daily, Day 8
[26] = 30 mg/kg group, Day −1, before first application
[27] = 30 mg/kg group, Day −2, before first application
[28] = 30 mg/kg group, Day −3, before first application
[29] = 30 mg/kg group, Day −4, before first application
[30] = 30 mg/kg group, Day −5, before first application
[31] = 30 mg/kg oral once daily, Day 1
[32] = 30 mg/kg oral once daily, Day 2
[33] = 30 mg/kg oral once daily, Day 4
[34] = 30 mg/kg oral once daily, Day 5
[35] = 30 mg/kg oral once daily, Day 6
[36] = 30 mg/kg oral once daily, Day 7
[37] = 30 mg/kg oral once daily, Day 8
[38] = db/db mice, treatment once daily oral
[39] = Rof-N-Oxide 1 mg/kg oral once daily 10 days
[40] = Rof-N-Oxide 3 mg/kg oral once daily 10 days
[41] = Rof-N-Oxide 10 mg/kg oral once daily 10 days
[42] = Rof-N-Oxide 30 mg/kg oral once daily 10 days

O=C(Nc1c(Cl)c[n+]([O-])cc1Cl)c1ccc(OC(F)F)c(OCC2CC2)c1 [Rof-N-Oxide, 3-cyclopropylmethoxy-4-difluoromethoxy-N-(3,5-dichloro-1-oxido-pyridin-4-yl)benzamide]
Daily food intake before the first application [1, 4]: 6.4 g per mouse | Daily food intake before the first application [1, 5]: 6.4 g per mouse | Daily food intake before the first application [1, 6]: 6.4 g per mouse | Daily food intake before the first application [1, 7]: 5.9 g per mouse | Daily food intake before the first application [1, 8]: 6.0 g per mouse | Daily food intake on the days of application ([1]; 1 mg/kg oral once daily, Day 1): 5.4 g per mouse | Daily food intake on the days of application ([1]; 1 mg/kg oral once daily, Day 2): 5.4 g per mouse | Daily food intake on the days of application ([1]; 1 mg/kg oral once daily, Day 3): 5.8 g per mouse | Daily food intake on the days of application ([1]; 1 mg/kg oral once daily, Day 4): 5.5 g per mouse | Daily food intake on the days of application ([1]; 1 mg/kg oral once daily, Day 5): 5.6 g per mouse | Daily food intake on the days of application ([1]; 1 mg/kg oral once daily, Day 6): 5.8 g per mouse | Daily food intake on the days of application ([1]; 1 mg/kg oral once daily, Day 7): 5.4 g per mouse | Daily food intake on the days of application ([1]; 1 mg/kg oral once daily, Day 8): 5.5 g per mouse | Daily food intake before the first application [1, 9]: 6.1 g per mouse | Daily food intake before the first application [1, 10]: 6.1 g per mouse | Daily food intake before the first application [1, 11]: 6.4 g per mouse | Daily food intake before the first application [1, 12]: 6.4 g per mouse | Daily food intake before the first application [1, 13]: 5.5 g per mouse | Daily food intake on the days of application ([1]; 3 mg/kg oral once daily, Day 1): 4.9 g per mouse | Daily food intake on the days of application ([1]; 3 mg/kg oral once daily, Day 2): 4.9 g per mouse | Daily food intake on the days of application ([1]; 3 mg/kg oral once daily, Day 3): 4.5 g per mouse | Daily food intake on the days of application ([1]; 3 mg/kg oral once daily, Day 4): 4.5 g per mouse | Daily food intake on the days of application ([1]; 3 mg/kg oral once daily, Day 5): 4.6 g per mouse | Daily food intake on the days of application ([1]; 3 mg/kg oral once daily, Day 6): 4.9 g per mouse | Daily food intake on the days of application ([1]; 3 mg/kg oral once daily, Day 7): 4.3 g per mouse | Daily food intake on the days of application ([1]; 3 mg/kg oral once daily, Day 8): 4.2 g per mouse | Daily food intake before the first application [1, 14]: 6.5 g per mouse | Daily food intake before the first application [1, 15]: 6.4 g per mouse | Daily food intake before the first application [1, 16]: 6.4 g per mouse | Daily food intake before the first application [1, 17]: 6.2 g per mouse | Daily food intake before the first application [1, 18]: 6.0 g per mouse | Daily food intake on the days of application [1, 19]: 2.9 g per mouse | Daily food intake on the days of application [1, 20]: 3.3 g per mouse | Daily food intake on the days of application ([1]; 10 mg/kg oral once daily, Day 3): 3.5 g per mouse | Daily food intake on the days of application [1, 21]: 2.9 g per mouse | Daily food intake on the days of application [1, 22]: 3.0 g per mouse | Daily food intake on the days of application [1, 23]: 3.1 g per mouse | Daily food intake on the days of application [1, 24]: 2.6 g per mouse | Daily food intake on the days of application [1, 25]: 3.8 g per mouse | Daily food intake before the first application [1, 26]: 6.3 g per mouse | Daily food intake before the first application [1, 27]: 6.2 g per mouse | Daily food intake before the first application [1, 28]: 6.5 g per mouse | Daily food intake before the first application [1, 29]: 6.4 g per mouse | Daily food intake before the first application [1, 30]: 5.8 g per mouse | Daily food intake on the days of application [1, 31]: 1.4 g per mouse | Daily food intake on the days of application [1, 32]: 0.9 g per mouse | Daily food intake on the days of application ([1]; 30 mg/kg oral once daily, Day 3): 1.2 g per mouse | Daily food intake on the days of application [1, 33]: 0.8 g per mouse | Daily food intake on the days of application [1, 34]: 0.9 g per mouse | Daily food intake on the days of application [1, 35]: 1.1 g per mouse | Daily food intake on the days of application [1, 36]: 0.7 g per mouse | Daily food intake on the days of application [1, 37]: 0.6 g per mouse | Effect on daily food intake (summary in words) [1, 38]: reduce in a dose-dependent manner | Daily water intake before the first application [2, 4]: 8.6 g per mouse | Daily water intake before the first application [2, 5]: 7.9 g per mouse | Daily water intake before the first application [2, 6]: 8.4 g per mouse | Daily water intake before the first application [2, 7]: 9.4 g per mouse | Daily water intake before the first application [2, 8]: 9.2 g per mouse | Daily water intake on the days of application ([2]; 1 mg/kg oral once daily, Day 1): 7.6 g per mouse | Daily water intake on the days of application ([2]; 1 mg/kg oral once daily, Day 2): 6.9 g per mouse | Daily water intake on the days of application ([2]; 1 mg/kg oral once daily, Day 4): 7.1 g per mouse | Daily water intake on the days of application ([2]; 1 mg/kg oral once daily, Day 5): 8.0 g per mouse | Daily water intake on the days of application ([2]; 1 mg/kg oral once daily, Day 6): 7.7 g per mouse | Daily water intake on the days of application ([2]; 1 mg/kg oral once daily, Day 7): 8.5 g per mouse | Daily water intake on the days of application ([2]; 1 mg/kg oral once daily, Day 8): 7.2 g per mouse | Daily water intake before the first application [2, 9]: 9.1 g per mouse | Daily water intake before the first application [2, 10]: 7.6 g per mouse | Daily water intake before the first application [2, 11]: 7.6 g per mouse | Daily water intake before the first application [2, 12]: 4.3 g per mouse | Daily water intake before the first application [2, 13]: 9.8 g per mouse | Daily water intake on the days of application ([2]; 3 mg/kg oral once daily, Day 1): 5.1 g per mouse | Daily water intake on the days of application ([2]; 3 mg/kg oral once daily, Day 2): 5.9 g per mouse | Daily water intake on the days of application ([2]; 3 mg/kg oral once daily, Day 4): 5.9 g per mouse | Daily water intake on the days of application ([2]; 3 mg/kg oral once daily, Day 5): 5.7 g per mouse | Daily water intake on the days of application ([2]; 3 mg/kg oral once daily, Day 6): 5.4 g per mouse | Daily water intake on the days of application ([2]; 3 mg/kg oral once daily, Day 7): 5.4 g per mouse | Daily water intake on the days of application ([2]; 3 mg/kg oral once daily, Day 8): 5.2 g per mouse | Daily water intake before the first application [2, 14]: 9.6 g per mouse | Daily water intake before the first application [2, 15]: 8.2 g per mouse | Daily water intake before the first application [2, 16]: 7.9 g per mouse | Daily water intake before the first application [2, 17]: 9.6 g per mouse | Daily water intake before the first application [2, 18]: 12.1 g per mouse | Daily water intake on the days of application [2, 19]: 2.9 g per mouse | Daily water intake on the days of application [2, 20]: 3.5 g per mouse | Daily water intake on the days of application [2, 21]: 3.2 g per mouse | Daily water intake on the days of application [2, 22]: 3.7 g per mouse | Daily water intake on the days of application [2, 23]: 3.3 g per mouse | Daily water intake on the days of application [2, 24]: 3.0 g per mouse | Daily water intake on the days of application [2, 25]: 4.1 g per mouse | Daily water intake before the first application [2, 26]: 10.1 g per mouse | Daily water intake before the first application [2, 27]: 9.4 g per mouse | Daily water intake before the first application [2, 28]: 10.0 g per mouse | Daily water intake before the first application [2, 29]: 12.4 g per mouse | Daily water intake before the first application [2, 30]: 10.1 g per mouse | Daily water intake on the days of application [2, 31]: 2.3 g per mouse | Daily water intake on the days of application [2, 32]: 2.4 g per mouse | Daily water intake on the days of application [2, 33]: 2.6 g per mouse | Daily water intake on the days of application [2, 34]: 3.0 g per mouse | Daily water intake on the days of application [2, 35]: 2.9 g per mouse | Daily water intake on the days of application [2, 36]: 3.3 g per mouse | Daily water intake on the days of application [2, 37]: 2.5 g per mouse | Effect on increased daily water intake (summary in words) [2, 38]: reduced | Blood glucose (15 min after glucose application) [3, 39]: 595 mg/dL | Blood glucose (before glucose application) [3, 39]: 220 mg/dL | Blood glucose (15 min after glucose application) [3, 40]: 467 mg/dL | Blood glucose (before glucose application) [3, 40]: 174 mg/dL | Blood glucose (15 min after glucose application) [3, 41]: 423 mg/dL | Blood glucose (before glucose application) [3, 41]: 139 mg/dL | Blood glucose (15 min after glucose application) [3, 42]: 326 mg/dL | Blood glucose (before glucose application) [3, 42]: 146 mg/dL | Effect on fasting blood glucose levels (summary in words) ([3]; db/db mice): reduce | Effect on postprandial blood glucose levels (summary in words) ([3]; db/db mice): reduce
